According to PubChem BioAssay (NCI):
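These data come from cells grown in 96-well plates and exposed to compound for 48 hours at five concentrations. GI50 = concentration required for 50% inhibition of growth. TGI: concentration producing complete growth inhibition.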

Key:
Test in all cases: growth of human tumour cells (NCI), 48 h
HCC-2998 colon = system: HCC-2998 colon
NCI-H23 lung = system: NCI-H23 lung
SW-620 colon = system: SW-620 colon
T-47D breast = system: T-47D breast
K-562 leukemia = system: K-562 leukemia
BT-549 breast = system: BT-549 breast
CAKI-1 renal = system: CAKI-1 renal
RXF 393 renal = system: RXF 393 renal
COLO 205 colon = system: COLO 205 colon
TK-10 renal = system: TK-10 renal
A549 NSCLC = system: A549 NSCLC
DU-145 prostate = system: DU-145 prostate
HL-60(TB) leukemia = system: HL-60(TB) leukemia
NCI-H460 lung = system: NCI-H460 lung
ACHN renal = system: ACHN renal
EKVX NSCLC = system: EKVX NSCLC
NCI/ADR-RES ovarian = system: NCI/ADR-RES ovarian
786-0 renal = system: 786-0 renal
UACC-257 melanoma = system: UACC-257 melanoma
MALME-3M melanoma = system: MALME-3M melanoma
MDA-MB-435 = system: MDA-MB-435
SF-295 CNS = system: SF-295 CNS
MOLT-4 leukemia = system: MOLT-4 leukemia
OVCAR-8 ovarian = system: OVCAR-8 ovarian
SNB-75 CNS = system: SNB-75 CNS
OVCAR-4 ovarian = system: OVCAR-4 ovarian
HCT-116 colon = system: HCT-116 colon
HOP-62 NSCLC = system: HOP-62 NSCLC
OVCAR-5 ovarian = system: OVCAR-5 ovarian
UO-31 renal = system: UO-31 renal
SK-OV-3 ovarian = system: SK-OV-3 ovarian
SNB-19 CNS = system: SNB-19 CNS
NCI-H226 lung = system: NCI-H226 lung
SK-MEL-5 melanoma = system: SK-MEL-5 melanoma
HT29 colon = system: HT29 colon
MDA-MB-231 breast = system: MDA-MB-231 breast
U251 CNS = system: U251 CNS
SF-539 CNS = system: SF-539 CNS
SR leukemia = system: SR leukemia
IGROV1 ovarian = system: IGROV1 ovarian
SF-268 CNS = system: SF-268 CNS
KM12 colon = system: KM12 colon
A498 renal = system: A498 renal
LOX IMVI melanoma = system: LOX IMVI melanoma
CCRF-CEM leukemia = system: CCRF-CEM leukemia
SN12C renal = system: SN12C renal
MCF7 breast = system: MCF7 breast
HCT-15 colon = system: HCT-15 colon
UACC-62 melanoma = system: UACC-62 melanoma
RPMI-8226 leukemia = system: RPMI-8226 leukemia
SK-MEL-28 melanoma = system: SK-MEL-28 melanoma
OVCAR-3 ovarian = system: OVCAR-3 ovarian

C=C1C(O)CC[C@]2(C)C1C1OC(C)(C)O[C@]13CC(=O)C(C)=C([C@H]1OC(C)(C)OC12)C3(C)C (stereo not given in full)
TGI (HCC-2998 colon): > 100 µM | TGI (NCI-H23 lung): > 100 µM | TGI (SW-620 colon): > 100 µM | TGI (T-47D breast): > 100 µM | TGI (K-562 leukemia): > 100 µM | TGI (BT-549 breast): > 100 µM | TGI (CAKI-1 renal): > 100 µM | TGI (RXF 393 renal): > 100 µM | TGI (COLO 205 colon): > 100 µM | TGI (TK-10 renal): > 100 µM | TGI (A549 NSCLC): > 100 µM | TGI (DU-145 prostate): > 100 µM | TGI (HL-60(TB) leukemia): > 100 µM | TGI (NCI-H460 lung): > 100 µM | TGI (ACHN renal): > 100 µM | TGI (EKVX NSCLC): > 100 µM | TGI (NCI/ADR-RES ovarian): > 100 µM | TGI (786-0 renal): > 100 µM | TGI (UACC-257 melanoma): > 100 µM | TGI (MALME-3M melanoma): > 100 µM | TGI (MDA-MB-435): > 100 µM | TGI (SF-295 CNS): > 100 µM | TGI (MOLT-4 leukemia): > 100 µM | TGI (OVCAR-8 ovarian): > 100 µM | TGI (SNB-75 CNS): > 100 µM | TGI (OVCAR-4 ovarian): > 100 µM | TGI (HCT-116 colon): > 100 µM | TGI (HOP-62 NSCLC): > 100 µM | TGI (OVCAR-5 ovarian): > 100 µM | TGI (UO-31 renal): > 100 µM | TGI (SK-OV-3 ovarian): > 100 µM | TGI (SNB-19 CNS): > 100 µM | TGI (NCI-H226 lung): > 100 µM | TGI (SK-MEL-5 melanoma): > 100 µM | TGI (HT29 colon): > 100 µM | TGI (MDA-MB-231 breast): > 100 µM | TGI (U251 CNS): > 100 µM | TGI (SF-539 CNS): > 100 µM | TGI (SR leukemia): > 100 µM | TGI (IGROV1 ovarian): > 100 µM | TGI (SF-268 CNS): > 100 µM | TGI (KM12 colon): > 100 µM | TGI (A498 renal): > 100 µM | TGI (LOX IMVI melanoma): > 100 µM | TGI (CCRF-CEM leukemia): > 100 µM | TGI (SN12C renal): > 100 µM | TGI (MCF7 breast): > 100 µM | TGI (HCT-15 colon): > 100 µM | TGI (UACC-62 melanoma): > 100 µM | TGI (RPMI-8226 leukemia): > 100 µM | TGI (SK-MEL-28 melanoma): > 100 µM | TGI (OVCAR-3 ovarian): > 100 µM

Cc1cn(-c2cc(F)cc(NC(=O)c3ccc(C)c(Nc4nccc(-c5cccnc5)n4)c3)c2)cn1
GI50 (HL-60(TB) leukemia): > 100 µM | TGI (HL-60(TB) leukemia): > 100 µM | GI50 (SK-MEL-5 melanoma): > 100 µM | TGI (SK-MEL-5 melanoma): > 100 µM | GI50 (A498 renal): > 100 µM | TGI (A498 renal): > 100 µM

C=C(CNCCc1ccc(O)cc1)[C@@H]1CC[C@]2(COC3CCCCO3)CC[C@]3(C)[C@H](CC[C@@H]4[C@@]5(C)CCC(NCCO)C(C)(C)[C@@H]5CC[C@]43C)[C@@H]12 (stereo not given in full)
GI50 (SW-620 colon): 0.211 µM | TGI (SW-620 colon): 0.453 µM | GI50 (CAKI-1 renal): 1.52 µM | TGI (CAKI-1 renal): 2.86 µM | GI50 (DU-145 prostate): 1.25 µM | TGI (DU-145 prostate): 2.58 µM | GI50 (NCI-H460 lung): 0.339 µM | TGI (NCI-H460 lung): 1.07 µM | GI50 (ACHN renal): 1.64 µM | TGI (ACHN renal): 3.04 µM | GI50 (MDA-MB-435): 1.35 µM | TGI (MDA-MB-435): 2.65 µM | GI50 (OVCAR-4 ovarian): 1.39 µM | TGI (OVCAR-4 ovarian): 2.82 µM | GI50 (OVCAR-5 ovarian): 1.67 µM | TGI (OVCAR-5 ovarian): 3.13 µM | GI50 (A498 renal): 1.33 µM | TGI (A498 renal): 2.72 µM | GI50 (HCT-15 colon): 0.39 µM | TGI (HCT-15 colon): 1.49 µM | GI50 (OVCAR-3 ovarian): 1.28 µM | TGI (OVCAR-3 ovarian): 2.77 µM
